Experimental data as given in patent publication US20180318325A1, “ANTIBODIES FOR TARGETING CANCER STEM CELLS AND TREATING AGGRESSIVE CANCERS” (GlycoMimetics, Inc., priority 2015, published 2018).

Columns and labels:
[1] = tested on: MM1S^HECA452; assay: survival of SCID beige mice transplanted with MM1S^HECA452 cells; format: in vivo; settings: MM1S^HECA452 engrafted female SCID beige mice; FIG. 4
Experimental: (§1) The significance of these in vitro findings were studied in vivo. Female SCID beige mice were injected i.v. with either MM1S^par or MM1S^HECA452 (5×10^5 cells, n=8/group) and followed for survival (see, e.g., FIG. 2). In separate cohorts, the effect of treatment with saline control, GMI-1271, bortezomib (BTZ) or a combination of both was determined in mice transplanted with either MM1S^par or MM1S^HECA452 cells.

[2] = tested on: MM1S^par; assay: survival of SCID beige mice transplanted with MM1S^par cells; format: in vivo; settings: MM1S^par engrafted female SCID beige mice; FIG. 3
Experimental: as §1

[3] = tested on: MM cells; settings: murine transplant models; Natoni et al., Blood, 2014; cited from earlier work
[4] = molecular target: T1, E-selectin (Homo sapiens, UniProt P16581); assay: static adhesion assay on E-selectin; format: cell-based; settings: GMI-1271 included during culture conditions; MM1S^HECA452 cells
T1 sequence (P16581 22-610): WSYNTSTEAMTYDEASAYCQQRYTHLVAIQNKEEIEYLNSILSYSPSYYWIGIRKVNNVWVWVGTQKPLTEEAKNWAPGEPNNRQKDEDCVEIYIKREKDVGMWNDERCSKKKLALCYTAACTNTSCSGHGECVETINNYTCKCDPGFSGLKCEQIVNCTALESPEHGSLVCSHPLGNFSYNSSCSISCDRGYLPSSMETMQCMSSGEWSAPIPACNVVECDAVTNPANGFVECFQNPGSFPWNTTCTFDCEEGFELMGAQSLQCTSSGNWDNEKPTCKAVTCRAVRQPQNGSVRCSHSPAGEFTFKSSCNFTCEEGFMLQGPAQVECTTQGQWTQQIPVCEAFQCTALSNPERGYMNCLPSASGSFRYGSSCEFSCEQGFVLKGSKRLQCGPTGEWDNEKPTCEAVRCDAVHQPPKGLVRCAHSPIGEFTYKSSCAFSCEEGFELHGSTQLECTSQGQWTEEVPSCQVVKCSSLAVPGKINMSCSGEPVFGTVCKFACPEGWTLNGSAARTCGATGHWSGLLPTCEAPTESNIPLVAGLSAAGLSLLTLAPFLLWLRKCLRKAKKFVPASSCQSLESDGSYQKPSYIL
Source text: (§2) The derived cell lines could be passaged in vitro and were stable for enriched E-selectin ligand expression identified by antibody HECA-452.

[5] = molecular target: T1, E-selectin; settings: MM1S cells that bind to HECA-452; previously reported; cited from earlier work
[6] = tested on: MM1S^HECA452; assay: mobilization of human CD138+ MM cells into the bloodstream of mice with MM1S^HECA452 tumors; format: in vivo
Experimental: The number of human CD138+ MM cells was mobilized into the bloodstream in mice with MM1S^HECA452 tumors within 60 min following a single injection of GMI-1271 (see, e.g., FIG. 5) and persisted for at least 24 hours (2.37% v. 0.03%, p<0.001). This effect was consistent with GMI-1271 disrupting the tumor microenvironment and mobilizing MM1S^HECA-452 cells from the BM niche into the peripheral blood.

[7] = molecular target: T1, E-selectin; assay: rolling on E-selectin under shear stress; format: cell-based; settings: both HECA-452 enriched and parental MM cell lines
Source text: as §2

[8] = following a single injection of GMI-1271

Compound	survival / anti-myeloma activity [1]	survival [2]	effect on activity of bortezomib in vivo [3]	adhesion of MM1S^HECA452 to E-selectin [4]	rolling of MM1S cells on E-selectin [5]	human CD138+ MM cells in the bloodstream ([6]; after a single injection of GMI-1271, 24 hours, v. 0.03%, p<0.001)	persistence of mobilization [6, 8]	time to mobilization of CD138+ MM cells into the bloodstream [6, 8]	rolling on E-selectin [7]
CC(C)C[C@H](NC(=O)[C@H](Cc1ccccc1)NC(=O)c1cnccn1)B(O)O [BTZ, bortezomib]	marked resistance to BTZ treatment	–	–	–	–	–	–	–	–
CC[C@H]1C[C@@H](C(=O)NCCNC(=O)CCOCCOCCOCCOCCOCCOCCOCCOCCOCCOCCOCCOC)C[C@@H](O[C@@H]2O[C@H](CO)[C@H](O)[C@H](O[C@@H](CC3CCCCC3)C(=O)[O-])[C@H]2NC(C)=O)[C@@H]1O[C@@H]1O[C@@H](C)[C@@H](O)[C@@H](O)[C@@H]1O.[Na+] [GMI-1271]	–	no impact on survival	enhance the activity of bortezomib	marked reduction in adhesion	blocked the rolling	2.37%	at least 24 hours	≤ 60 min	profoundly inhibited rolling
